Test results published in PMC5735191, “Computational and biological profile of boronic acids for the detection of bacterial serine- and metallo-β-lactamases” (Scientific Reports, 2017).

Legend:
VIM-2 = VIM-2 (Escherichia coli, UniProt Q5U7L7)
Excerpt: VIM-2. The VIM-2 metallo-β-lactamase was purified from a 2 L culture of BL21-DE3/pET9-VIM-
2 as previously described3. Briefly, the protein was purified from the culture supernatant,
concentrated by ultrafiltration, and purified using two anion exchange chromatography steps,
followed by a final gel filtration step, as described. β-lactamase activity was monitored using the
The authenticity and purity of the final protein sample was
confirmed by ESI-MS and SDS-PAGE.
Protein purification methods and kinetic profile characterization details: the Table reports the
step-by-step purification procedure for each β-lactamase protein, indicating the β-lactam substrate
used for kinetic profile characterization (kcat, Km and specificity constant evaluation) and the
proper concentration of enzyme used in the assay for each BL class.

NDM-1 = NDM-1 (Klebsiella pneumoniae, UniProt C7C422)
NDM-1, sequence (C7C422 29-270 limits assumed): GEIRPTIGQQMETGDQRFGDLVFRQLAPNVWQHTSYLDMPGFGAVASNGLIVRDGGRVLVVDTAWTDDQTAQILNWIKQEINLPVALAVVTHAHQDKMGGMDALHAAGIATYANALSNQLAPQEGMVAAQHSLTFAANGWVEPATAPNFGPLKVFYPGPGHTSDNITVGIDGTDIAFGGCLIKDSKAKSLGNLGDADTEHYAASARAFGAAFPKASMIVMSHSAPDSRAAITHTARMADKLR
Description: 24h at 37 °C. Cells were recovered by centrifugation (4,500 rpm, 4 °C, 20 min) and resuspended in
200 mL of buffer A (10 mM Hepes, 0.15 M NaCl, pH7.5). The cells were lyzed by sonication
(Sonopuls HD-2200) and the cell debris removed by centrifugation (12,000 rpm, 4 °C, 30 min) in
the presence of Protease Inhibitor Complete (Roche). The clarified sample was loaded onto a 5mL
HisTrap Fast Flow column (GE Healthcare). The protein was eluted with imidazole (350 mM in
buffer A) The active fractions were pooled, concentrated by ultrafiltration (Amicon Ultra 15, MW
cut-off, 10 kDa), desalted (Hi Prep 26/10 Desalting) in buffer B (20mM triethanolamine, 50 µM
ZnSO4, pH 7.2) to remove imidazole. β -lactamase activity was monitored using the hydrolysis rate
The authenticity and purity of the final protein sample was confirmed by

## C[C@@H](O)[C@H]1C(=O)N2C(C(=O)O)=C(SCCN=CN)C[C@H]12 [Imipenem, imipenem]
VIM-2; β-lactam substrate of VIM-2
  kcat: 8 ± 2 s⁻¹
VIM-2; β-lactam substrate of VIM-2, enzyme 0.043 µM
  Km: 11 ± 3 µM
NDM-1; β-lactam substrate of NDM-1
  kcat: 520 ± 84 s⁻¹
NDM-1; β-lactam substrate of NDM-1, enzyme 0.021 µM
  Km: 58 ± 6 µM
